Where a name gives a salt, the structure may show the parent alone.
Tests used:
5-HT3 receptor [1] = target: T1, 5-HT3 receptor (Cavia porcellus, UniProt O70212); assay: 5-HT3 receptor agonistic activity: contractile response of isolated guinea pig distal colon strips; type: cell-based; settings: read-out: Max. response
T1 construct: Distal colons were excised from male Hartley guinea pigs; from tissue; host or cells: distal colon strips of male Hartley guinea pigs
T1 sequence (O70212 20-490): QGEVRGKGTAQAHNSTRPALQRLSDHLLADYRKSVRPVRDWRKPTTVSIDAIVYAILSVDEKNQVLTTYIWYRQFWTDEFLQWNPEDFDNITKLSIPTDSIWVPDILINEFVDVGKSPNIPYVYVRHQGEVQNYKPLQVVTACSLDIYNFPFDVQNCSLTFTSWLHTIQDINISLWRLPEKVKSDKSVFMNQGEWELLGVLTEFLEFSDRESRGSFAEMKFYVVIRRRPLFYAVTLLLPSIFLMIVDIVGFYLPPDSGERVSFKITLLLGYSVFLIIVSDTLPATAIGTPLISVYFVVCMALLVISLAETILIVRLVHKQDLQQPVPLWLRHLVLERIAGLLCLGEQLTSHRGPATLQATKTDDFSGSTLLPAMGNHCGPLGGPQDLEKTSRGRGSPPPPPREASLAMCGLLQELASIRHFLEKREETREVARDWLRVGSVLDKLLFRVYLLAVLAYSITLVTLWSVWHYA
Excerpt: Distal colons were excised from male Hartley guinea pigs (500 to 800 g) to prepare strips of about 20 mm.
Each strip was longitudinally suspended in a Magnus tube, and contractile response was isometrically measured.

ICR male mice = assay: Toxicity after i.v. administration to ICR male mice; type: in vivo; settings: 100 mg/kg i.v., 8 to 9 weeks of age, n=5 to 6
Excerpt: Being low in toxicity, the compounds of the present invention are suitable for use as medicines.

5-HT3 receptor [2] = assay: Receptor binding experiment

SMILES	Emax (5-HT3 receptor [1]) [%]	side effects (ICR male mice)	affinity for the 5-HT3 receptor (5-HT3 receptor [2])
c1ccc2c(c1)CCCc1sc(Cc3c[nH]cn3)nc1-2 [Example 4, 2-(4-Imidazolylmethyl)-5,6-dihydro-4H-benzo[6,7]-cyclohepto[1,2-d]thiazole fumarate]	50	–	–
c1ccc2c(c1)Cc1sc(Cn3ccnc3)nc1-2 [Example 10, 2-(1-Imidazolylmethyl)-8H-indeno[1,2-d]thiazole fumarate]	60.9	–	–
O=C(O)/C=C/C(=O)O.c1ccc2c(c1)CCc1sc(Cc3c[nH]cn3)nc1-2 [Example 3, 2-(4-Imidazolylmethyl)-4,5-dihydronaphtho[1,2-d]thiazole fumarate]	80.3	do not cause serious grave side effects	–
c1ccc2c(c1)Cc1sc(Cc3c[nH]cn3)nc1-2 [Example 1, 2-(4-imidazolylmethyl)-8H-indeno[1,2-d]thiazole]	89.9	do not cause serious grave side effects	high affinity
Cn1cncc1Cc1nc2c(s1)Cc1ccccc1-2 [Example 15, 2-[(1-Methyl-5-imidazolyl)methyl]-8H-indeno[1,2-d]thiazole]	42.6	–	–
c1ccc2c(c1)ccc1sc(Cn3ccnc3)nc12 [Example 30, 2-(1-imidazolylmethyl)naphtho[1,2-d]thiazole]	78.2	–	–
